Values joined by “and” are separate entries in the source; they are usually repeats but may differ in a detail not shown here. Identical values can stand only once. Inconclusive results and toxic doses are left out. Rule as the data show it: active = T/C of 150% or more; inactive = T/C below 125%.
Tested on: L1210 leukemia ip in BDF1 mice, survival T/C
Experiment: NCI In Vivo Anticancer Drug Screen. Data for tumor model L1210 Leukemia (intraperitoneal) in B6D2F1 (BDF1) mice
Conditions: endpoint: mean survival time, higher = longer survival
Procedure, shortened: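 Transplanted-tumor mice were given test agent; controls received vehicle only. Survival readings from the two groups were divided (treated over control).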

[1] = dose: 50.0 mg/kg/injection, schedule: Q01DX009 (ip), vehicle: saline
[2] = dose: 50.0 mg/kg/injection, schedule: Q04DX002 (ip), vehicle: saline with Tween-80
[3] = dose: 200.0 mg/kg/injection, schedule: Q01DX001 (ip), vehicle: saline with Tween-80
[4] = dose: 400.0 mg/kg/injection, schedule: Q01DX001 (ip), vehicle: saline with Tween-80
[5] = dose: 100.0 mg/kg/injection, schedule: Q01DX001 (ip), vehicle: saline
[6] = dose: 200.0 mg/kg/injection, schedule: Q01DX001 (ip), vehicle: saline
[7] = dose: 400.0 mg/kg/injection, schedule: Q01DX001 (ip), vehicle: saline
[8] = dose: 100.0 mg/kg/injection, schedule: Q01DX009 (ip), vehicle: Klucel (hydroxypropylcellulose) (HPC)
[9] = dose: 100.0 mg/kg/injection, schedule: Q04DX003 (ip), vehicle: Klucel (hydroxypropylcellulose) (HPC)
[10] = dose: 200.0 mg/kg/injection, schedule: Q01DX009 (ip), vehicle: Klucel (hydroxypropylcellulose) (HPC)
[11] = dose: 200.0 mg/kg/injection, schedule: Q04DX003 (ip), vehicle: Klucel (hydroxypropylcellulose) (HPC)
[12] = dose: 20.0 mg/kg/injection, schedule: Q04DX003 (ip), vehicle: Klucel (hydroxypropylcellulose) (HPC)
[13] = dose: 40.0 mg/kg/injection, schedule: Q04DX003 (ip), vehicle: Klucel (hydroxypropylcellulose) (HPC)
[14] = dose: 100.0 mg/kg/injection, schedule: Q04DX002 (ip), vehicle: saline with Tween-80
[15] = dose: 200.0 mg/kg/injection, schedule: Q04DX002 (ip), vehicle: saline with Tween-80
[16] = dose: 400.0 mg/kg/injection, schedule: Q04DX002 (ip), vehicle: saline with Tween-80

Measured: T/C

CC(=O)C(CN(C)C)c1ccccc1 (stereo not given)
inactive: dose: 12.5 mg/kg/injection, schedule: Q01DX009 (ip), vehicle: saline with Tween-80 91 % of control | dose: 12.5 mg/kg/injection, schedule: Q04DX002 (ip), vehicle: saline with Tween-80 102 % of control | dose: 25.0 mg/kg/injection, schedule: Q01DX009 (ip), vehicle: saline with Tween-80 98 % of control | dose: 25.0 mg/kg/injection, schedule: Q04DX002 (ip), vehicle: saline with Tween-80 102 % of control | dose: 50.0 mg/kg/injection, schedule: Q01DX009 (ip), vehicle: saline with Tween-80 89 % of control | [1] 103 % of control | [2] 109 % of control | dose: 200.0 mg/kg/injection, schedule: Q01DX009 (ip), vehicle: saline 90 % of control

O=C(Nc1ccc(S(=O)(=O)c2ccc(NC(=O)C(F)(F)Cl)cc2)cc1)C(F)(F)Cl
inactive: dose: 100.0 mg/kg/injection, schedule: Q01DX001 (ip), vehicle: carboxymethylcellulose (CMC) 104 % of control | dose: 200.0 mg/kg/injection, schedule: Q01DX001 (ip), vehicle: carboxymethylcellulose (CMC) 101 % of control | dose: 400.0 mg/kg/injection, schedule: Q01DX001 (ip), vehicle: carboxymethylcellulose (CMC) 103 % of control

CC(=O)n1c(O)c(N=NC(=N)N[N+](=O)[O-])c2ccccc21
inactive: dose: 100.0 mg/kg/injection, schedule: Q01DX001 (ip), vehicle: saline with Tween-80 97 % of control | dose: 132.0 mg/kg/injection, schedule: Q01DX001 (ip), vehicle: saline with Tween-80 101 % of control | [3] 97 % of control | dose: 300.0 mg/kg/injection, schedule: Q01DX001 (ip), vehicle: saline with Tween-80 106 % of control | [4] 101 % of control

COc1ccc(-n2c(=O)c(N=Nc3ccc(Cl)cc3)c(O)n(-c3ccccc3Cl)c2=S)cc1
inactive: dose: 50.0 mg/kg/injection, schedule: Q01DX001 (ip), vehicle: Klucel (hydroxypropylcellulose) (HPC) 106 % of control | dose: 100.0 mg/kg/injection, schedule: Q01DX001 (ip), vehicle: Klucel (hydroxypropylcellulose) (HPC) 97 % of control | dose: 200.0 mg/kg/injection, schedule: Q01DX001 (ip), vehicle: Klucel (hydroxypropylcellulose) (HPC) 95 % of control

O=C1NS(=O)(=O)CS(=O)(=O)N1
inactive: [5] 108 % of control | [6] 104 % of control | [7] 101 % of control

Cc1cc([N+](=O)[O-])ccc1NS(=O)(=O)c1ccccc1
inactive: dose: 50.0 mg/kg/injection, schedule: Q01DX009 (ip), vehicle: Klucel (hydroxypropylcellulose) (HPC) 92 % of control | [8] 95 % of control | [9] 102 % of control | [10] 95 % of control | [11] 97 % of control

O=C1CC(c2ccccc2)(c2ccccc2)c2cc(-c3ccccc3)c(-c3ccccc3)cc21
inactive: dose: 100.0 mg/kg/injection, schedule: Q04DX002 (ip), vehicle: Klucel (hydroxypropylcellulose) (HPC) 106 % of control | dose: 200.0 mg/kg/injection, schedule: Q04DX002 (ip), vehicle: Klucel (hydroxypropylcellulose) (HPC) 103 % of control | dose: 400.0 mg/kg/injection, schedule: Q04DX002 (ip), vehicle: Klucel (hydroxypropylcellulose) (HPC) 95 % of control

Clc1ccc(Cl)c(OCC2=NCCN2)c1
inactive: [12] 102 % of control | [13] 101 % of control

CN=Cc1ccccc1O.CN=Cc1ccccc1O.[Cu+2]
inactive: dose: 4.68 mg/kg/injection, schedule: Q01DX009 (ip), vehicle: acetone 94 % of control | dose: 9.37 mg/kg/injection, schedule: Q01DX009 (ip), vehicle: acetone 92 % of control | dose: 18.75 mg/kg/injection, schedule: Q01DX009 (ip), vehicle: acetone 90 % of control | dose: 18.75 mg/kg/injection, schedule: Q04DX003 (ip), vehicle: acetone 95 % of control | dose: 37.5 mg/kg/injection, schedule: Q04DX003 (ip), vehicle: acetone 92 % of control | dose: 75.0 mg/kg/injection, schedule: Q01DX001 (ip), vehicle: acetone 92 % of control

OCC1(CO)COC2(CCCC2)N1
inactive: dose: 50.0 mg/kg/injection, schedule: Q01DX001 (ip), vehicle: saline 101 % of control | [5] 97 % of control | [6] 95 % of control | [7] 103 % of control

C=CC1CN2CCC1CC2C(O)c1ccnc2ccccc12 (stereo not given)
inactive: dose: 100.0 mg/kg/injection, schedule: Q01DX009 (ip), vehicle: gum acacia 107 % of control | dose: 200.0 mg/kg/injection, schedule: Q01DX009 (ip), vehicle: gum acacia 105 % of control

COc1ccc(Cl)cc1NC(=O)Oc1ccccn1
inactive: dose: 100.0 mg/kg/injection, schedule: Q01DX009 (ip), vehicle: saline with Tween-80 89 % of control | [14] 92 % of control and 97 % of control | dose: 100.0 mg/kg/injection, schedule: Q04DX003 (ip), vehicle: saline with Tween-80 95 % of control | [3] 89 % of control | dose: 200.0 mg/kg/injection, schedule: Q01DX009 (ip), vehicle: saline with Tween-80 90 % of control and 91 % of control | [15] 93 % of control and 102 % of control | dose: 200.0 mg/kg/injection, schedule: Q04DX003 (ip), vehicle: saline with Tween-80 101 % of control | [4] 92 % of control | dose: 400.0 mg/kg/injection, schedule: Q01DX009 (ip), vehicle: saline with Tween-80 96 % of control | [16] 95 % of control and 91 % of control | dose: 400.0 mg/kg/injection, schedule: Q04DX003 (ip), vehicle: saline with Tween-80 101 % of control

CNc1ccccc1C#N
inactive: [8] 102 % of control | [9] 93 % of control | [10] 98 % of control | [11] 95 % of control | dose: 400.0 mg/kg/injection, schedule: Q01DX009 (ip), vehicle: Klucel (hydroxypropylcellulose) (HPC) 109 % of control | dose: 400.0 mg/kg/injection, schedule: Q04DX003 (ip), vehicle: Klucel (hydroxypropylcellulose) (HPC) 97 % of control

O=[n+]1ccn2ccccc2c1
inactive: [1] 100 % of control | dose: 100.0 mg/kg/injection, schedule: Q01DX009 (ip), vehicle: saline 102 % of control | [9] 98 % of control | [11] 104 % of control

[Cl][Sn]([c]1cccc2ccccc12)([c]1cccc2ccccc12)[c]1cccc2ccccc12
inactive: [14] 98 % of control | [15] 102 % of control | [16] 87 % of control

CN(C)c1ccc(N=C(C#N)C#N)cc1
inactive: dose: 75.0 mg/kg/injection, schedule: Q01DX001 (ip), vehicle: other 89 % of control | dose: 150.0 mg/kg/injection, schedule: Q01DX001 (ip), vehicle: other 95 % of control

NC(NCCN1CC1)(C(F)(F)F)C(F)(F)F
inactive: dose: 10.0 mg/kg/injection, schedule: Q04DX003 (ip), vehicle: Klucel (hydroxypropylcellulose) (HPC) 109 % of control | dose: 20.0 mg/kg/injection, schedule: Q01DX001 (ip), vehicle: Klucel (hydroxypropylcellulose) (HPC) 105 % of control | [12] 104 % of control | dose: 40.0 mg/kg/injection, schedule: Q01DX001 (ip), vehicle: Klucel (hydroxypropylcellulose) (HPC) 101 % of control | [13] 109 % of control

O=C(O)c1ccc(Br)c2ccccc12
inactive: dose: 75.0 mg/kg/injection, schedule: Q01DX001 (ip), vehicle: carboxymethylcellulose (CMC) 95 % of control | dose: 150.0 mg/kg/injection, schedule: Q01DX001 (ip), vehicle: carboxymethylcellulose (CMC) 98 % of control

CN1CN2c3ccccc3CCC2C2CCCC21 (stereo not given)
inactive: [2] 104 % of control | [14] 96 % of control | [15] 101 % of control
